For orientation: MIC means the smallest concentration in the dilution series that meets the test's criterion for growth inhibition. The low end stands for inhibition by little substance, the high end for a need for much substance.

The source of these data is patent US20020006406A1, “METHOD FOR THE TREATMENT OF STAPHYLOCOCCAL DISEASE” (priority 1997, published 2002).

Converted amounts (≈) assume the structure as drawn.

Test [1] deals with S. aureus strain AG461. The following applies: strain AG461 (methicillin-resistant clinical isolate).
Description: The different concentrations of lysostaphin and vancomycin used were one and eight times their respective MIC.
For test [2], the system named is S. aureus strain AG461. Description: Time-kill experiment, S. aureus AG461 (FIG. 1). The following applies: 2 and 16 μg/ml (1x and 8x MIC), three hours of contact. In kind it is cell-based. The method, then: The bactericidal activity of lysostaphin against S. aureus was also studied by means of time-kill experiments. In one experiment of this type, S. aureus strain AG461, a methicillin-resistant clinical isolate from Genoa, Italy, was inoculated into Mueller-Hinton broth (Difco) and grown at 37° C. with gentle shaking until it reached approximately 10^8 viable cells per ml (CFU/ml), as estimated from the absorbance of the culture at 600 nm. The culture was then diluted with fresh broth to approximately 10^6 CFU/ml and 5 ml aliquots were placed in several different flasks for exposure to different concentrations of antibacterial agents. Incubation was continued, with gentle shaking, at 37° C., and samples were withdrawn at intervals for determination of viable cells. Serial 10-fold dilutions of the samples were made in sterile saline (0.9% NaCl in distilled water) and duplicate 0.1 ml aliquots of appropriate dilutions were plated on Tryptic Soy agar plates (Remel) using the agar inclusion method. (In this method, the aliquot to be plated is added to 2.5 ml of top agar, which is mixed and poured onto a plate. Top agar consisted of molten Tryptic Soy agar (Difco) diluted 2-fold with Difco Tryptic Soy broth to give a final agar concentration of 0.75%, w/v.) The plates were incubated for 24-48 hours at 36° C. and the colonies were counted manually. […]

Test [3] relates to methicillin-resistant VISA strain of S. aureus. Description: Vancomycin MIC for the laboratory-selected VISA strain. In kind it is cell-based. The following applies: Staphylococcus aureus, variant strain selected after cycles of growth in glycopeptide-containing medium. The method, then: Strains that are both methicillin-resistant and resistant to vancomycin are a newly emerging problem. A variant strain of this type was selected after cycles of growth in glycopeptide-containing medium. The vancomycin MIC for the resulting strain was 8 μg/ml, as reported also for naturally occurring VISA strains isolated from patients in the U.S. and Japan. (Centers for Disease Control and Prevention, Morbidity and Mortality Weekly Report 1997; 46:813-815). Staphylococcal isolates are considered to be susceptible to vancomycin if the MIC is less than or equal to 4 μg/ml and to be completely resistant if the MIC is greater than or equal to 32 μg/ml (National Committee for Clinical Laboratory Standards, 1993. Approved Standard M2-A5. Performance standards for antimicrobial disk susceptibility tests—Fifth edition. National Committee for Clinical Laboratory Standards, Villanova, Pa.)

In a further test the test system is S. aureus Smith. Description: Acute S. aureus infection model in mice (survival). It is filed as in vivo. The method, then: The efficacy of lysostaphin was compared to that of vancomycin in an acute infection model in mice. S. aureus Smith was cultured overnight, with moderate agitation, in Veal Infusion broth (Difco) and diluted in broth containing 5% hog gastric mucin (Difco). Male Swiss-Webster mice (Taconic Farms, Germantown, N.Y.) weighing approximately 20 grams were infected intraperitoneally with 10^5-10^6 viable cells, approximately tenfold the inoculum that reproducibly killed all untreated animals within 48 h. There were six mice in each treatment group. Lysostaphin was administered intravenously (in 0.1 ml 5% dextrose for injection) or subcutaneously (in 0.2 ml), within 10 min of infection. Vancomycin was administered subcutaneously.

The subject of the next test is S. aureus. The experiment in a line: MIC by broth macrodilution in glass tubes. In kind it is cell-based. The method, then:
In this experiment, MICs were determined by broth macrodilution in 1 ml final volumes in glass tubes. Otherwise, the methodology was as described above.

`CN[C@H](CC(C)C)C(=O)N[C@H]1C(=O)N[C@@H](CC(N)=O)C(=O)N[C@H]2C(=O)N[C@H]3C(=O)N[C@H](C(=O)N[C@H](C(=O)O)c4cc(O)cc(O)c4-c4cc3ccc4O)[C@H](O)c3ccc(c(Cl)c3)Oc3cc2cc(c3O[C@@H]2O[C@H](CO)[C@@H](O)[C@H](O)[C@H]2O[C@H]2C[C@](C)(N)[C@H](O)[C@H](C)O2)Oc2ccc(cc2Cl)[C@H]1O` [vancomycin, reference compound]: the “MIC (lower time-kill concentration stated to be one times MIC)” value in the test on S. aureus strain AG461 [1] is 2 µg/mL (≈ 1.38 µM). Further, in the test with S. aureus strain AG461 [2], the “bactericidal action (killing of the bacteria)” value is given as “very little killing”. The compound also registered an MIC in test [3] of 8 µg/mL (≈ 5.52 µM). The “% survival” value in the test on S. aureus Smith (5 mg/kg sc) is reported as 100%.

For the compound “Gly218Asp: lysostaphin variant with a single change, glycine to aspartic acid, at position 218 of the mature protein”, the MIC entry against S. aureus (strain AG402 (clinical isolate)) was “.06 µg/mL”; against S. aureus (strain AG404 (clinical isolate, methicillin-resistant)), “.06 µg/mL”; in the test on S. aureus (strain AG414) it was “.03 µg/mL”; in the test on S. aureus (strain AG417), “.03 µg/mL”. Further, the “% survival” value is 0% with S. aureus Smith (Table 4 experiment, dose 0.08 mg/kg); 17% with S. aureus Smith (Table 4 experiment, dose 0.16 mg/kg); 33% in the test on S. aureus Smith (Table 4 experiment, dose 0.31 mg/kg); 83% in the test on S. aureus Smith (Table 4 experiment, dose 0.63 mg/kg).
